The nature of data set [1]: Kinetic solubility of compound in PBS at pH 6.8 incubated for 24 hrs by UPLC/MS analysis. To be noted: read-out: Kinetic_solubility. It is filed as physicochemical.
The nature of data set [2]: Permeability of the compound in PRISMA HT buffer at pH 7.4 at 10 uM incubated for 3 hrs by PAMPA based LC/MS/MS analysis. It is filed as ADME. Particulars: read-out: permeability. (In PAMPA a lipid-coated filter parts donor from acceptor wells.)
In another data set the test system is human MDR1 (P-gp). In words: Apparent permeability across apical to basolateral side in pig LLC-PK1 cells expressing human MDR1 at 10 uM measured after 60 mins by LC/MS/MS analysis. It is filed as ADME, cell-based, Sus scrofa.
The nature of data set [3]: AUC in mouse at […], iv administered as cassette dose. It is filed as ADME, organism-based. To be noted: in vivo. Also on record: dose 0.25 mg/kg, route iv.
The nature of data set [4]: Hepatic blood flow in mouse at […], iv administered as cassette dose. In kind it is ADME, organism-based. Particulars: in vivo, dose 0.25 mg/kg.

Values after ≈ are worked out from the molar mass of the structure shown.

Broadly, the Papp A→B is the apparent permeability from the apical to the basolateral side of a cell layer. Usually AUC stands for concentration integrated over time.

For the compound `CN(C)[C@H]1Cc2cccc(c2)OCCCC[C@@H](C(=O)NC2CCCC2)NC(=O)[C@H](CCN2CCOCC2)NC1=O`, in data set [1], the solubility kinetic at 24 h is > 130 µg/mL. Besides, the Papp at 3 h, 10 µM in data set [2] was 2 ×10⁻⁶ cm/s. For the same compound, the Papp A→B at 1 h, 10 µM in the data set on human MDR1 (P-gp) turned out to be 0.12 ×10⁻⁶ cm/s.

Turning to `O=C(NCC(F)(F)F)[C@@H]1COCCOc2cccc(c2)C[C@H](N2CCCC2=O)C(=O)N[C@@H](CCc2ccccc2)C(=O)N1`, the solubility kinetic at 24 h in data set [1] is < 130 µg/mL. The Papp at 3 h, 10 µM in data set [2] stood at 12 ×10⁻⁶ cm/s.

`O=C(NC1CCCC1)[C@@H]1CCCCOc2cccc(c2)C[C@H](N2CCCC2=O)C(=O)N[C@@H](CCc2ccccc2)C(=O)N1`: the solubility kinetic at 24 h in data set [1] turned out to be 100 µg/mL (≈ 170 µM). Further, the Papp at 3 h, 10 µM in data set [2] stood at 15.1 ×10⁻⁶ cm/s. For the same compound, the Papp A→B at 1 h, 10 µM in the data set with human MDR1 (P-gp) worked out at 5.7 ×10⁻⁶ cm/s.

Consider `CN[C@H]1Cc2cccc(c2)OCCCC[C@@H](C(=O)NC2CCCC2)NC(=O)[C@H](CCN2CCOCC2)NC1=O`, for which the solubility kinetic at 24 h in data set [1] was > 140 µg/mL. In the data set on human MDR1 (P-gp), the Papp A→B at 1 h, 10 µM is > 0.2 ×10⁻⁶ cm/s.

In the case of `Cc1ccc(CNC(=O)[C@@H]2Cc3cccc(c3)Oc3cccc(c3)C[C@H](N)C(=O)N[C@@H](CCc3ccccc3)C(=O)N2)cc1`, the solubility kinetic at 24 h in data set [1] is < 1.6 µg/mL. For the same compound, the Papp A→B at 1 h, 10 µM in the data set on human MDR1 (P-gp) was > 0.29 ×10⁻⁶ cm/s.

Take `O=C(NCC(F)(F)F)[C@@H]1CCCCOc2cccc(c2)C[C@H](N2CCCC2=O)C(=O)N[C@@H](CCc2ccccc2)C(=O)N1`: in data set [1], the solubility kinetic at 24 h was found to be 76 µg/mL (≈ 126 µM). Also, in data set [3], the AUC was found to be 0.6 ng·h/mL. Besides, in data set [4], the QH is 93.33 mL/min/kg. Also, in data set [2], the Papp at 3 h, 10 µM stood at 18.7 ×10⁻⁶ cm/s. For the same compound, in the data set with human MDR1 (P-gp), the Papp A→B at 1 h, 10 µM was 5.3 ×10⁻⁶ cm/s.

As to `O=C(NC1(C(F)(F)F)CC1)[C@@H]1CCCCOc2cccc(c2)C[C@H](N2CCCC2=O)C(=O)N[C@@H](CCc2ccccc2)C(=O)N1`, in data set [1], the solubility kinetic at 24 h was 31 µg/mL (≈ 49.3 µM). For the same compound, the Papp at 3 h, 10 µM in data set [2] came to 14.5 ×10⁻⁶ cm/s. Besides, the Papp A→B at 1 h, 10 µM with human MDR1 (P-gp) was 4.4 ×10⁻⁶ cm/s.

Turning to `O=C(NC1CCCC1)[C@@H]1CCCCOc2cccc(c2)C[C@H](N2CCCC2=O)C(=O)N[C@@H](CCc2ccc(F)cc2)C(=O)N1`, in data set [1], the solubility kinetic at 24 h stood at 17 µg/mL (≈ 28 µM). The Papp at 3 h, 10 µM in data set [2] came to 21.2 ×10⁻⁶ cm/s. For the same compound, the Papp A→B at 1 h, 10 µM with human MDR1 (P-gp) worked out at 4.5 ×10⁻⁶ cm/s.

As to `Cn1cc(CNC(=O)[C@@H]2CCCCOc3cccc(c3)C[C@H](N3CCCC3=O)C(=O)N[C@@H](CCc3ccccc3)C(=O)N2)cn1`, the solubility kinetic at 24 h in data set [1] was > 120 µg/mL. Moreover, in data set [2], the Papp at 3 h, 10 µM was 1.1 ×10⁻⁶ cm/s. Further, in the data set on human MDR1 (P-gp), the Papp A→B at 1 h, 10 µM was > 0.6 ×10⁻⁶ cm/s.

Consider `CC(=O)N[C@H]1Cc2cccc(c2)Oc2cccc(c2)C[C@@H](C(=O)NCC(F)(F)F)NC(=O)[C@H](CCc2ccccc2)NC1=O`, for which, in data set [1], the solubility kinetic at 24 h is < 1.4 µg/mL. Also, the Papp A→B at 1 h, 10 µM with human MDR1 (P-gp) is > 0.077 ×10⁻⁶ cm/s.

Take `CC(=O)N[C@H]1Cc2cccc(c2)Oc2cccc(c2)C[C@@H](C(=O)NCc2ccc(C)cc2)NC(=O)[C@H](CCc2ccccc2)NC1=O`: in data set [2], the Papp at 3 h, 10 µM turned out to be 2.2 ×10⁻⁶ cm/s. The Papp A→B at 1 h, 10 µM in the data set on human MDR1 (P-gp) was > 3.4 ×10⁻⁶ cm/s.

Turning to `O=C(NCC1CC1)[C@@H]1CCCCOc2cccc(c2)C[C@H](N2CCCC2=O)C(=O)N[C@@H](CCc2ccccc2)C(=O)N1`, the solubility kinetic at 24 h in data set [1] stood at 49 µg/mL (≈ 85.3 µM). The Papp at 3 h, 10 µM in data set [2] amounted to 10.3 ×10⁻⁶ cm/s. Besides, the Papp A→B at 1 h, 10 µM with human MDR1 (P-gp) amounted to 6.8 ×10⁻⁶ cm/s.

Turning to `O=C1N[C@H](c2nnc(C(F)(F)F)[nH]2)CCCCOc2cccc(c2)C[C@H](N2CCCC2=O)C(=O)N[C@H]1CCc1ccccc1`, the solubility kinetic at 24 h in data set [1] was 2 µg/mL (≈ 3.26 µM). For the same compound, the Papp at 3 h, 10 µM in data set [2] came out at 8.2 ×10⁻⁶ cm/s. Also, the Papp A→B at 1 h, 10 µM in the data set on human MDR1 (P-gp) was > 2.1 ×10⁻⁶ cm/s.

Regarding `O=C(NC1CCCC1)[C@@H]1CCCCOc2cccc(c2)CC2(COC2)C(=O)N[C@@H](CCN2CCOCC2)C(=O)N1`, the solubility kinetic at 24 h in data set [1] worked out at 68 µg/mL (≈ 122 µM). The Papp at 3 h, 10 µM in data set [2] was determined as 8.9 ×10⁻⁶ cm/s. In addition, the Papp A→B at 1 h, 10 µM with human MDR1 (P-gp) was > 2.8 ×10⁻⁶ cm/s.

With `O=C(NC1CCCC1)[C@@H]1CCCCOc2cccc(c2)C[C@H](N2CCCC2=O)C(=O)N[C@@H](CCN2CCOCC2)C(=O)N1`, in data set [1], the solubility kinetic at 24 h is > 130 µg/mL. For the same compound, in data set [2], the Papp at 3 h, 10 µM stood at 1.5 ×10⁻⁶ cm/s. In addition, in the data set with human MDR1 (P-gp), the Papp A→B at 1 h, 10 µM was > 0.2 ×10⁻⁶ cm/s.

`O=C(NCC(F)F)[C@@H]1CCCCOc2cccc(c2)C[C@H](N2CCCC2=O)C(=O)N[C@@H](CCc2ccccc2)C(=O)N1`: the solubility kinetic at 24 h in data set [1] was determined as 35 µg/mL (≈ 59.9 µM). Besides, the Papp at 3 h, 10 µM in data set [2] stood at 7.2 ×10⁻⁶ cm/s. Moreover, the Papp A→B at 1 h, 10 µM in the data set on human MDR1 (P-gp) was > 1.1 ×10⁻⁶ cm/s.

Regarding `O=C1N[C@H](c2nnc(C(F)(F)F)o2)CCCCOc2cccc(c2)C[C@H](N2CCCC2=O)C(=O)N[C@H]1CCc1ccccc1`, the solubility kinetic at 24 h in data set [1] was determined as 6.2 µg/mL (≈ 10.1 µM). Besides, the Papp at 3 h, 10 µM in data set [2] amounted to 16 ×10⁻⁶ cm/s. For the same compound, the Papp A→B at 1 h, 10 µM with human MDR1 (P-gp) turned out to be 1.1 ×10⁻⁶ cm/s.

Regarding `O=C(NC1CCCC1)[C@@H]1CCCCOc2cccc(c2)C[C@H](N2CCCC2=O)C(=O)N[C@@H](CCN2CCC(F)(F)CC2)C(=O)N1`, in data set [1], the solubility kinetic at 24 h was > 130 µg/mL. For the same compound, the Papp at 3 h, 10 µM in data set [2] is 13.3 ×10⁻⁶ cm/s. Moreover, the Papp A→B at 1 h, 10 µM with human MDR1 (P-gp) was 4 ×10⁻⁶ cm/s.

Consider `CC1(C)Cc2cccc(c2)OCCCC[C@@H](C(=O)NC2CCCC2)NC(=O)[C@H](CCN2CCOCC2)NC1=O`, for which the solubility kinetic at 24 h in data set [1] was 90 µg/mL (≈ 166 µM). Moreover, in data set [2], the Papp at 3 h, 10 µM was determined as 26.9 ×10⁻⁶ cm/s. The Papp A→B at 1 h, 10 µM with human MDR1 (P-gp) is 3.5 ×10⁻⁶ cm/s.

For the compound `O=C(NC1CCCC1)[C@@H]1CCCCOc2cccc(c2)C[C@H](N2CCCC2=O)C(=O)N[C@@H](COc2ccccc2)C(=O)N1`, the solubility kinetic at 24 h in data set [1] was determined as 20 µg/mL (≈ 33.9 µM). The Papp at 3 h, 10 µM in data set [2] worked out at 20.8 ×10⁻⁶ cm/s.

On to `O=C(NC1CCCC1)[C@@H]1CCCCOc2cccc(c2)C[C@H](N2CCC2)C(=O)N[C@@H](CCN2CCOCC2)C(=O)N1`, for which, in data set [1], the solubility kinetic at 24 h was > 140 µg/mL. The Papp A→B at 1 h, 10 µM in the data set with human MDR1 (P-gp) was > 0.2 ×10⁻⁶ cm/s.

For `O=C(NCC(F)(F)F)[C@@H]1Cc2cccc(c2)Oc2cccc(c2)C[C@H](N2CCCC2=O)C(=O)N[C@@H](CCc2ccccc2)C(=O)N1`, in data set [1], the solubility kinetic at 24 h was determined as 3.8 µg/mL (≈ 5.97 µM).

The record behind these values is ChEMBL document CHEMBL5143716, “Design, Synthesis, and Optimization of Macrocyclic Peptides as Species-Selective Antimalaria Proteasome Inhibitors” (J Med Chem, 2022).
